Assay results: patent US20080312291A1, “Heterocyclic Gaba-b Modulators” (priority 2005, published 2008)

Molecular target: T1, GABABR1a/GABABR2 heterodimer (Homo sapiens, UniProt O75899+Q9UBS5)
T1 construct: expressed in transfected cells; membranes prepared from it)
Test: [35S]-GTPγS binding assay, potency of PAM
Type: biochemical
Conditions: potency of the positive allosteric modulator; log EC50 for GABA plotted against log concentration of modulator
Source text: GABABR1a and GABABR2 were cloned from human brain cDNA and subcloned into pCI-Neo(Promega) and pALTER-1 (Promega), respectively. A GABABR1a-Gαqi5 fusion protein expression vector was constructed using the pCI-Neo-GABABR1a cDNA plasmid and pLEC1-Gαqi5 (Molecular Devices, CA). In order to make the Gαqi5 pertussis toxin insensitive, Cys356 was mutated to Gly using standard PCR methodology with the primers 5′-[…]-3′ (forward) and 5′-GCGGCCG […]-3′ (reverse). The Gαqi5mut cDNA was ligated into the BamHI and NotI sites of pcDNA3.0 (Invitrogen). The GABAB R1a coding sequence was amplified by PCR from pCI-Neo-GABABR1a using the primers, 5′-[…]-3′ (forward) and 5′-[…]-3′ (reverse) and subcloned into the BamHI site of pcDNA3.0-Gαqi5mut. […]
[^35S]-GTPγS binding assays were performed at 30° C. for 45 min in membrane buffer (100 mM NaCl, […], 1 mM EDTA, 5 mM HEPES, pH 7.4) containing 0.025 μg/μl of membrane protein (prepared from the cell lines described above) with 0.01% bovine serum albumin (fatty acid free), 10 μM GDP, 100 μM DTT and 0.53 nM [^35S]-GTPγS (Amersham Pharmacia Biotech) in a final volume of 200 μl. Nonspecific binding was determined in the presence of 20 μM GTPγS. […]

T1 sequence (Q9UBS5 15-961 limits assumed): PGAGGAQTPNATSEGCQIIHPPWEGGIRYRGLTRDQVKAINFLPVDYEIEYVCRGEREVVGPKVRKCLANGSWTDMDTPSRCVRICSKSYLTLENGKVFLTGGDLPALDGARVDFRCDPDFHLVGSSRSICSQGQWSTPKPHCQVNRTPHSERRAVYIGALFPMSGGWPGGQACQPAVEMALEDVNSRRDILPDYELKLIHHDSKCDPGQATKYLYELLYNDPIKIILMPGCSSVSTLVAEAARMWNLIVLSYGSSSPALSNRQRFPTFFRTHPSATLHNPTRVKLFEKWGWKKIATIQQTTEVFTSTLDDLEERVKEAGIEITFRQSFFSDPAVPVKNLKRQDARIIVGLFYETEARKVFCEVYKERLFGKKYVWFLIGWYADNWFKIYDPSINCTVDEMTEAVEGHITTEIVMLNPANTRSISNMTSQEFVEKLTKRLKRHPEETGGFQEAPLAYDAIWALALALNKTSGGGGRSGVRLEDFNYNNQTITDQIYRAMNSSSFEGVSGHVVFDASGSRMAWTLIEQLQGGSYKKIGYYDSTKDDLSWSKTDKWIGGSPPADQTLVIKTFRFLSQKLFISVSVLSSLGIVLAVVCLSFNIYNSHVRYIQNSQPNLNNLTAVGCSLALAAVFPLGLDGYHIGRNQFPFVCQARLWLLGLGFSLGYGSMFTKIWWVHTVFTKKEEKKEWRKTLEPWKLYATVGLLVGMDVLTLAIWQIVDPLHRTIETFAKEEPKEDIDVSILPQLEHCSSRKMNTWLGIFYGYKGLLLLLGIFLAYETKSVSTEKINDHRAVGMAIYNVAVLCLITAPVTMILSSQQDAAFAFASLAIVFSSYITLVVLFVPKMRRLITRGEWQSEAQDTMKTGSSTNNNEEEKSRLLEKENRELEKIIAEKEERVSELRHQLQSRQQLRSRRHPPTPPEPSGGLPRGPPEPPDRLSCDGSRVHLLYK
T1 sequence (O75899 42-941): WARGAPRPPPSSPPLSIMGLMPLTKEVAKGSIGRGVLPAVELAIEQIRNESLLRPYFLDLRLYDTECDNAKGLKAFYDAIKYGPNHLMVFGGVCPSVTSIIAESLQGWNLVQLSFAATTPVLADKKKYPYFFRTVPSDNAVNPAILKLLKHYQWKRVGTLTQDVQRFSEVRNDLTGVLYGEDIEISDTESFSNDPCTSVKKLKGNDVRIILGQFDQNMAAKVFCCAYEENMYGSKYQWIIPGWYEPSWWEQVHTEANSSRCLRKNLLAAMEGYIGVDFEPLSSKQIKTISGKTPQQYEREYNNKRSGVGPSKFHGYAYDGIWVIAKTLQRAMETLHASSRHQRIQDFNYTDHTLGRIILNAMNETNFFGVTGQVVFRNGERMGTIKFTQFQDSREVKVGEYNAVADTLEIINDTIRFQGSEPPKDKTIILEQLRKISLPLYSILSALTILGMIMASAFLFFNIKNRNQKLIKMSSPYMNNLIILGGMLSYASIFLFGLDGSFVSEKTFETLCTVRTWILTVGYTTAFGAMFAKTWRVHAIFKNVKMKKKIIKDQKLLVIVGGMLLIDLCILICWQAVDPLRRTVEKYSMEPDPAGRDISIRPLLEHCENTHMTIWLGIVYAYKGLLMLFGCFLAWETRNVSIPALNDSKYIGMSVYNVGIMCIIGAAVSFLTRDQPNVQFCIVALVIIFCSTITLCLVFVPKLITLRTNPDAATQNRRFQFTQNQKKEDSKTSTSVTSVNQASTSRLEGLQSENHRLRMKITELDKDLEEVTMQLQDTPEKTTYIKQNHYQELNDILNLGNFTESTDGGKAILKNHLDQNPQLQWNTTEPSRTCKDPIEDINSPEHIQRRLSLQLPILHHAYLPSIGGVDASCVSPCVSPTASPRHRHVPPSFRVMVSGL

EC50 [µM]	SMILES
7.23	CCOC(=O)c1nc(C(C)C)oc1NC(=O)c1ccc(C(C)(C)C)cc1 [Example 21, Ethyl 5-[(4-tert-butylbenzoyl)amino]-2-isopropyl-1,3-oxazole-4-carboxylate]
1.96	CCOC(=O)c1nc(C(C)C)sc1NC(=O)C(CC)c1ccccc1 (centres unmarked) [Example 16, Ethyl 2-isopropyl-5-[(2-phenylbutanoyl)amino]-1,3-thiazole-4-carboxylate]
